According to paper PMC4861708 (Frontiers in Cell and Developmental Biology, 2016):
Converted amounts (≈) assume the structure as drawn. Where a SMILES comes first, the peptide text is derived from it. [ ]: non-standard residue; d: D form. The star is where a group is joined. Orn(α-tetramethylguanidino) = CN(C)C(=N[C@@H](CCCN)C(=O)*)N(C)C; Orn = NCCC[C@H](N)C(=O)O

How the values were obtained:
[1] = test system: E. coli DSM 1103 (ATCC 25922); format: cell-based, Escherichia coli; settings: DSM 1103, 24 h
Protocol: MICs of P. aeruginosa strains DSM 1117 (ATCC 27853), DSM 3227 (ATCC 19429), and DSM 9644 were determined in a microdilution broth assay using 50 or 100% MHB (11.5 and 23 g/L MHB, respectively) whereas MICs of E. coli DSM 1103 (ATCC 25922) and K. pneumoniae DSM 681 (ATCC 10031) were determined in TSB (30 g/L TSB). Peptides (1 g/L in water) were serially two-fold diluted in a 96-well microtiter plate (PS, sterile, flat bottom) in 50 μL of the corresponding medium to final concentrations of 512–4 μg/mL. Bacteria were grown in nutrient broth overnight and diluted to a cell concentration of 1.5 × 10^7 cells/mL in the corresponding medium. Cell densities were determined by using the McFarland standard as reference. An aliquot (50 μL) of the cell culture was added to each well and incubated (37°C, 24 h). The OD595 was determined in a SpectraMax 340PC (Molecular Devices, Sunnyvale, USA). Additionally, MIC values were also determined for high bacteria densities (5 × 10^8 cells/mL) corresponding to the conditions used for TEM, as described above.

[2] = test system: HEK293 cells; experiment: in vitro; format: cell-based, human; settings: 24 h
Protocol: (§1) Human embryonic kidney (HEK293) and HeLa cells were cultured in Dulbecco's modified Eagle's/Ham's F-12 medium [DMEM/F-12 (1:1)] supplemented with FBS (10% v/v), penicillin, and streptomycin (1000 units each). Primary rat cardiomyocytes (Innoprot, Elexalde Derio, Spain) were grown in medium supplemented with FBS (20% v/v), horse serum (5% v/v), L-glutamine (2 mmol/L), sodium pyruvate (2 mmol/L), MEM non-essential amino acids (Gibco, 0.1 mmol/L), penicillin, and streptomycin (1000 units each). Surfaces for cardiomyocyte growth were coated with attachment factor first. Cells (20,000/well) were seeded into a 96-well plate (PS, sterile, flat bottom), incubated for 24 h (37°C, 5% CO2), and washed twice with PBS (100 μl/well) prior to adding colorless medium (88 μL) and peptide solution (12 μL; 5, 2.5, 1.25, […], and 0.625 g/L in PBS). Positive controls were triton X-100 (1%, v/v) and melittin (60 mg/L) as lytic peptide, whereas PBS (12%, v/v) served as negative control. After an incubation period of 24 h, supernatant (25 μL) was mixed with lactate dehydrogenase (LDH) substrate (175 μL; 0.57 mmol/L sodium pyruvate, 0.24 mmol/L NADH disodium salt, 32 mmol/L potassium dihydrogen phosphate, 66 mmol/L dipotassium phosphate) in 96-well plates (PS, sterile, flat bottom). Absorbance was recorded at 340 nm every 3 min for 30 min on the Paradigm microplate reader. Due to the total release of LDH upon triton X-100 treatment, the control contained high LDH concentrations resulting in a fast substrate turnover that was only linear for the first 6 min.
(§2) The MTT cell viability assay relied on the same cell culture. Remaining medium was replaced by a mixture of fresh colorless medium (100 μL) and MTT (10 μL; 5 g/L in PBS) and incubated for 4 h (37°C, 5% CO2). A solution of sodium dodecyl sulfate (100 μL; 10%, w/v) dissolved in hydrochloric acid (10 mmol/L) was added, incubated (16 h), and the absorbance recorded at 590 nm relative to the reference at 650 nm (Paradigm microplate reader). The relative cell viability was calculated by [(ODPeptide − ODTriton)/(ODPBS − ODTriton)] × 100% and half-maximal inhibitory concentrations (IC50) with an Excel-template from cell biology protocols (www.sciencegateway.org/ protocols/cellbio/drug/hcic50.htm). For statistical analysis an unpaired t-test was applied using GraphPad Prism 5.0.

[3] = test system: HeLa cells; experiment: Flow cytometry, endocytosis inhibition with dynasore; format: cell-based; settings: dynasore 0.2 mmol/L 45 min, peptide 40 μmol/L 30 min
Protocol: Fresh colorless medium (150 μL) supplemented with either dynasore (0.2 mmol/L) dissolved in DMSO (final concentration of 0.2% v/v) or DMSO (0.2% v/v) as vehicle control was added. After 45 min (37°C) the supernatant was replaced by fresh medium supplemented with either dynasore or DMSO at the same concentrations (144 μL), Cf-labeled peptide added (6 μL, 1 mmol/L in water), and incubated (30 min, 37°C). Cells were fixed and stained with Hoechst 33342 as described above.
HeLa cells (50,000 for endocytosis inhibition and 70,000 for uptake kinetics) suspended in DMEM/F-12 medium (300 μL; see above) were seeded into 48-well plates (PS, sterile, flat bottom) and incubated (23 ± 1 h) using the conditions described above. Cells were washed twice with PBS (300 μL/well) and fresh medium was added (144 μL).
Cell cultures were prepared and incubated in the presence of dynasore, as described for microscopy. Cells were washed, treated with trypsin, and fixed as described above, dissolved in FACS buffer, and analyzed the same day.

[4] = Quartz crystal microbalance, membrane interaction; format: binding
Protocol: Data were acquired with the Q-Sense E4 system (Q-sense, Sweden using polished, gold-coated, AT-cut quartz sensors with a fundamental frequency of ca. 5 MHz (Q-Sense, Västra Frölunda, Sweden) (Mechler et al., [2007]; McCubbin et al., [2011]). Briefly, sensors were cleaned with hydrogen peroxide (6% w/v) and aqueous ammonia (5.6% w/v) for 20 min (70–75°C), washed with water, and then activated with 3-mercaptopropionic acid (1 mmol/L in isopropanol) overnight. Liposomes consisting of DMPC and DMPG (molar ratio of 4:1) were deposited onto the sensors, washed with “high salt” PBS (20 mmol/L potassium phosphate, 0.1 mol/L NaCl, pH 6.9) and then with “low salt” PBS (10 mmol/L potassium phosphate, 30 mmol/L NaCl, pH 6.9). The system was equilibrated at 19.1 ± 0.1°C with “high salt” PBS, prior to the introduction of peptide solutions (2; 5; 10 and 20 μmol/L, 1 mL each in “high salt” PBS) at a flow rate of 50 μL/min over 20 min followed by an incubation, without any flow. Afterwards the “high salt” PBS was again introduced at 300 μL/min to determine if any surface materials could be removed from the sensor. Changes in the sensor frequency (Δf) and dissipation (ΔD) were monitored for the third, fifth, seventh, and ninth harmonic using Q-Soft (Q-Sense) and analyzed using Origin 8 software.

[5] = in vitro; format: cell-based, human; settings: human
Protocol: as §1, §2

Row | SMILES | MIC E. coli ATCC 25922 [1] | MIC E. coli DSM 1103, high inoculum [1] | IC50 on cell viability [2] | Drop of GeoMean fluorescence (uptake) in the presence of dynasore vs vehicle control [3] | QCM Δf (peptide insertion) ([4]; 2 μmol/L, DMPC:DMPG 4:1) | QCM Δf (peptide insertion) ([4]; 5, 10, and 20 μmol/L, DMPC:DMPG 4:1) | viability at 24 h, 0.6 g/L [5] | QCM change in dissipation (ΔD) ([4]; 2-20 μmol/L, incubation period ii) | QCM frequency loss upon washing with PBS buffer ([4]; period iii, DMPC:DMPG 4:1)
1 | CC(C)C[C@H](NC(=O)[C@H](CCCNC(=N)N)NC(=O)[C@@H]1CCCN1C(=O)[C@H](Cc1c[nH]cn1)NC(=O)[C@@H]1CCCN1C(=O)[C@@H]1CCCN1C(=O)[C@H](CCCNC(=N)N)NC(=O)[C@@H]1CCCN1C(=O)[C@H](CCCNC(=N)N)NC(=O)[C@@H]1CCCN1C(=O)[C@H](CCCN)NC(=O)[C@H](Cc1ccc(O)cc1)NC(=O)[C@@H](NC(=O)[C@@H]1CCCN1C(=O)[C@H](CCCNC(=N)N)NC(=O)[C@H](CCCN)NC(=O)[C@H](Cc1c[nH]c2ccccc12)NC(=O)[C@H](CCCN)NC(=O)[C@H](Cc1c[nH]c2ccccc12)NC(=O)[C@H](CCCN)NC(=O)[C@H](Cc1c[nH]c2ccccc12)NC(=O)[C@H](CCCN)N=C(N(C)C)N(C)C)C(C)C)C(=O)O [Api794, gu-O(WO)3RPVYOPRPRPPHPRL-OH] ({Orn(α-tetramethylguanidino)}-W[Orn]W[Orn]W[Orn]RPVY[Orn]PRPRPPHPRL-OH) | 16 µg/mL (≈ 5.4 µM) | 64 µg/mL (≈ 21.6 µM) | 280 ± 30 µg/mL (≈ 94.4 µM) | 50% | – | – | – | – | –
2 | CC[C@H](C)[C@H](NC(=O)[C@H](CCCN)N=C(N(C)C)N(C)C)C(=O)N[C@@H](CCCN)C(=O)N[C@H](C(=O)N[C@@H](CCCN)C(=O)N[C@@H](CCCNC(=N)N)C(=O)N1CCC[C@H]1C(=O)N[C@H](C(=O)N[C@@H](Cc1ccc(O)cc1)C(=O)N[C@@H](CCCN)C(=O)N1CCC[C@H]1C(=O)N[C@@H](CCCNC(=N)N)C(=O)N1CCC[C@H]1C(=O)N[C@@H](CCCNC(=N)N)C(=O)N1CCC[C@H]1C(=O)N1CCC[C@H]1C(=O)N[C@@H](Cc1c[nH]cn1)C(=O)N1CCC[C@H]1C(=O)N[C@@H](CCCNC(=N)N)C(=O)N[C@@H](CC(C)C)C(=O)O)C(C)C)[C@@H](C)CC [Api795, gu-O(IO)2RPVYOPRPRPPHPRL-OH] ({Orn(α-tetramethylguanidino)}-I[Orn]I[Orn]RPVY[Orn]PRPRPPHPRL-OH) | 8 µg/mL (≈ 3.18 µM) | 32 µg/mL (≈ 12.7 µM) | >600 µg/mL | 80% | 9 Hz | 6 Hz | ~60% | – | –
3 | CC[C@H](C)[C@H](NC(=O)[C@H](Cc1ccc(O)cc1)NC(=O)[C@@H](NC(=O)[C@@H]1CCCN1C(=O)[C@H](CCCNC(=N)N)NC(=O)[C@H](CC(N)=O)NC(=O)[C@H](CC(N)=O)NC(=O)[C@H](CCCN)N=C(N(C)C)N(C)C)C(C)C)C(=O)N1CCC[C@H]1C(=O)N[C@@H](CCCNC(=N)N)C(=O)N1CCC[C@H]1C(=O)N[C@@H](CCCNC(=N)N)C(=O)N1CCC[C@H]1C(=O)N1CCC[C@H]1C(=O)N[C@@H](Cc1c[nH]cn1)C(=O)N1CCC[C@H]1C(=O)N[C@@H](CCCNC(=N)N)C(=O)N[C@@H](CC(C)C)C(=O)O [Api137, gu-ONNRPVYIPRPRPPHPRL-OH, reference compound] ({Orn(α-tetramethylguanidino)}-NNRPVYIPRPRPPHPRL-OH) | 2 µg/mL (≈ 0.873 µM) | 32 µg/mL (≈ 14 µM) | – | – | – | – | 83 ± 3% | No change | ~ 2 Hz
